Like-named read-outs stand apart in the source and are kept apart here.
Legend:
Test in all cases: Biochemical inhibition assay, fluorogenic substrate FSR-AMC
Thrombin = Thrombin (Homo sapiens, UniProt P00734)
Trypsin = Trypsin (Homo sapiens, UniProt P07477)
Factor Xa = Factor Xa (Homo sapiens, UniProt P00742)
KLK6 = KLK6 (Homo sapiens, UniProt Q92876)
[1] = read-out: Thrombin IC50, Thrombin 9.8·10^-5 NIH unit/mL, 30 min incubation with inhibitor, FSR-AMC 20 µM, Tris pH 7.5
[2] = read-out: Trypsin IC50, Trypsin 0.88 ng/mL, 30 min incubation with inhibitor, FSR-AMC 20 µM, Tris pH 7.5
[3] = read-out: Factor Xa IC50, Factor Xa 4 nM, 30 min incubation with inhibitor, FSR-AMC 20 µM, Tris pH 7.5
[4] = read-out: KLK6 IC50, KLK6 5 nM (produced in insect cells), 30 min incubation with inhibitor, FSR-AMC 20 µM, Tris pH 7.5

Factor Xa, sequence (P00742 235-488 limits assumed): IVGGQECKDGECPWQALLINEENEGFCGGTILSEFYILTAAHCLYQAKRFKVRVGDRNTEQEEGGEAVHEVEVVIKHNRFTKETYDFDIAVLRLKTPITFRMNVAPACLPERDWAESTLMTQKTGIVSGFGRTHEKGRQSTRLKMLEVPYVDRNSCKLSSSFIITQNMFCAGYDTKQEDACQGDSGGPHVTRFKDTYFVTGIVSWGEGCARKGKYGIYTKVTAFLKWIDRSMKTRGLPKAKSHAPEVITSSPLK
Factor Xa, sequence (P00742 41-179 partner limits assumed): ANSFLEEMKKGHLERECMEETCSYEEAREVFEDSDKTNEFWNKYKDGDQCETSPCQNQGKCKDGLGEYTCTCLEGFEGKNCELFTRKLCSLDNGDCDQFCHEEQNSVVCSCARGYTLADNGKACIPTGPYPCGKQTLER

| SMILES | IC50 (Thrombin) [µM] | IC50 (Trypsin) [µM] | IC50 (Factor Xa) [µM] | IC50 (KLK6) [µM] | IC50 (Thrombin; [1]) [µM] | IC50 (Trypsin; [2]) [µM] | IC50 (Factor Xa; [3]) [µM] | IC50 (KLK6; [4]) [µM] |
| --- | --- | --- | --- | --- | --- | --- | --- | --- |
| Cc1nn(-c2ccc(C(F)(F)F)cc2)c(C)c1NC(=O)COC(=O)Cn1c(C)cc2ccccc21 [compound 4, 2-((3,5-dimethyl-1-(4-(trifluoromethyl)phenyl)-1H-pyrazol-4-yl)amino)-2-oxoethyl 2-(2-methyl-1H-indol-1-yl)acetate] | > 200 | > 200 | > 200 | 2.89 | – | – | – | – |
| Cc1nn(-c2ccccc2[N+](=O)[O-])c(C)c1NC(=O)COC(=O)Cn1c(C)cc2ccccc21 [compound 5, 2-((3,5-dimethyl-1-(2-nitrophenyl)-1H-pyrazol-4-yl)amino)-2-oxoethyl 2-(2-methyl-1H-indol-1-yl)acetate] | > 200 | 51 | 50 | 0.172 | – | – | – | – |
| Cc1nn(-c2ccc(C#N)cc2)c(C)c1NC(=O)COC(=O)Cn1c(C)cc2ccccc21 [compound 6, 2-((1-(4-cyanophenyl)-3,5-dimethyl-1H-pyrazol-4-yl)amino)-2-oxoethyl 2-(2-methyl-1H-indol-1-yl)acetate] | > 200 | > 200 | > 200 | 0.439 | – | – | – | – |
| COc1ccc(Cn2nc(C)c(NC(=O)COC(=O)Cn3c(C)cc4ccccc43)c2C)cc1 [compound 7, 2-((1-(4-methoxybenzyl)-3,5-dimethyl-1H-pyrazol-4-yl)amino)-2-oxoethyl 2-(2-methyl-1H-indol-1-yl)acetate] | > 200 | > 200 | > 200 | 0.598 | – | – | – | – |
| Cc1nn(-c2ccccc2C(F)(F)F)c(C)c1NC(=O)COC(=O)Cn1c(C)cc2ccccc21 [compound 8, 2-((3,5-dimethyl-1-(2-(trifluoromethyl)phenyl)-1H-pyrazol-4-yl)amino)-2-oxoethyl 2-(2-methyl-1H-indol-1-yl)acetate] | > 200 | 126 | 139 | 0.258 | – | – | – | – |
| Cc1ccc(-n2nc(C)c(NC(=O)COC(=O)Cn3c(C)cc4ccccc43)c2C)cc1 [compound 9, 2-((3,5-dimethyl-1-(p-tolyl)-1H-pyrazol-4-yl)amino)-2-oxoethyl 2-(2-methyl-1H-indol-1-yl)acetate] | 197 | 67.1 | > 200 | 0.267 | – | – | – | – |
| Cc1nn(-c2ccc([N+](=O)[O-])cc2)c(C)c1NC(=O)COC(=O)Cn1c(C)cc2ccccc21 [compound 10, 2-((3,5-dimethyl-1-(4-nitrophenyl)-1H-pyrazol-4-yl)amino)-2-oxoethyl 2-(2-methyl-1H-indol-1-yl)acetate] | > 200 | > 200 | > 200 | 0.994 | – | – | – | – |
| Cc1nn(-c2ccccc2)c(C)c1NC(=O)COC(=O)Cn1ccc2ccccc21 [compound 11, 2-((3,5-dimethyl-1-phenyl-1H-pyrazol-4-yl)amino)-2-oxoethyl 2-(1H-indol-1-yl)acetate] | > 200 | > 200 | > 200 | 14.5 | – | – | – | – |
| Cc1ccc(-n2nc(C)c(NC(=O)COC(=O)Cc3c[nH]c4ccccc34)c2C)cc1 [compound 13, 2-((3,5-dimethyl-1-(p-tolyl)-1H-pyrazol-4-yl)amino)-2-oxoethyl 2-(1H-indol-3-yl)acetate] | > 200 | 133 | 162 | 6.47 | – | – | – | – |
| Cc1nn(-c2ccccc2)c(C)c1NC(=O)COC(=O)Cn1cc(C)c2ccccc21 [compound 14, 2-((3,5-dimethyl-1-phenyl-1H-pyrazol-4-yl)amino)-2-oxoethyl 2-(3-methyl-1H-indol-1-yl)acetate] | > 200 | > 200 | > 200 | 16.2 | – | – | – | – |
| Cc1nn(-c2ccccc2N)c(C)c1NC(=O)COC(=O)Cn1c(C)cc2ccccc21 [compound 23] | – | – | – | – | > 200 | > 200 | > 200 | 0.375 |
| CC(=O)Nc1cccc(CC(=O)OCC(=O)Nc2c(C)nn(-c3ccccc3)c2C)c1 [compound 47] | – | – | – | – | > 200 | > 200 | > 200 | 31.4 |
| Cc1ccccc1CC(=O)OCC(=O)Nc1c(C)nn(-c2ccccc2)c1C [compound 50] | – | – | – | – | > 200 | > 200 | > 200 | 2.16 |
| Cc1nn(-c2ccccc2)c(C)c1NC(=O)COC(=O)Cc1ccccc1I [compound 51] | – | – | – | – | > 200 | > 200 | > 200 | 0.261 |
| COc1ccc(CC(=O)OCC(=O)Nc2c(C)nn(-c3ccccc3)c2C)cc1 [compound 52] | – | – | – | – | > 200 | > 200 | > 200 | 32.8 |
| COc1cccc(CC(=O)OCC(=O)Nc2c(C)nn(-c3ccccc3)c2C)c1 [compound 53] | – | – | – | – | > 200 | > 200 | > 200 | 30 |
| COc1ccccc1CC(=O)OCC(=O)Nc1c(C)nn(-c2ccccc2)c1C [compound 54] | – | – | – | – | > 200 | > 200 | > 200 | 4.85 |
| Cc1nn(-c2ccccc2)c(C)c1NC(=O)COC(=O)Cc1cccc(N)c1 [compound 55] | – | – | – | – | > 200 | > 200 | > 200 | 17 |
| Cc1nn(-c2ccccc2)c(C)c1NC(=O)COC(=O)Cc1cccc(C#N)c1 [compound 56] | – | – | – | – | > 200 | > 200 | > 200 | 16.1 |
| Cc1nn(-c2ccccc2)c(C)c1NC(=O)COC(=O)Cc1ccccn1 [compound 58] | – | – | – | – | > 200 | > 200 | > 200 | 8.86 |
| Cc1nn(-c2ccccc2)c(C)c1NC(=O)COC(=O)Cc1cccs1 [compound 59] | – | – | – | – | > 200 | > 200 | > 200 | 6.28 |

Second part, the compound after the results:

| IC50 (Thrombin) [µM] | IC50 (Trypsin) [µM] | IC50 (Factor Xa) [µM] | IC50 (KLK6) [µM] | IC50 (Thrombin; [1]) [µM] | IC50 (Trypsin; [2]) [µM] | IC50 (Factor Xa; [3]) [µM] | IC50 (KLK6; [4]) [µM] | SMILES |
| --- | --- | --- | --- | --- | --- | --- | --- | --- |
| – | – | – | – | > 200 | 144 | > 200 | 4.72 | Cc1nn(-c2ccccc2)c(C)c1NC(=O)COC(=O)Cn1c(C)c(C)c2ccccc21 [compound 15] |
| – | – | – | – | > 200 | > 200 | > 200 | 0.158 | Cc1nn(-c2ccccc2)c(C)c1NC(=O)COC(=O)Cn1c(C(F)(F)F)cc2ccccc21 [compound 16] |
| – | – | – | – | > 200 | > 200 | > 200 | 109 | Cc1cc(C)n(CC(=O)OCC(=O)Nc2c(C)nn(-c3ccccc3)c2C)n1 [compound 17] |
| – | – | – | – | > 200 | 149 | 50.5 | 11.6 | Cc1nn(-c2ccccc2)c(C)c1NC(=O)COC(=O)Cc1cn(C)c2ccccc12 [compound 18] |
| – | – | – | – | > 200 | 21.3 | > 200 | 0.264 | Cc1nn(-c2ccc(NCCCCO)cc2)c(C)c1NC(=O)COC(=O)Cn1c(C)cc2ccccc21 [compound 19] |
| – | – | – | – | > 200 | > 200 | > 200 | 0.24 | Cc1ccc(-n2nc(C)c(NC(=O)COC(=O)Cn3c(C(F)(F)F)cc4ccccc43)c2C)cc1 [compound 20] |
| – | – | – | – | > 200 | > 200 | > 200 | 112 | Cc1nn(-c2ccc([N+](=O)[O-])cc2)c(C)c1NC(=O)COC(=O)Cn1c(C(F)(F)F)cc2ccccc21 [compound 21] |
| – | – | – | – | > 200 | 105 | > 200 | 0.486 | Cc1nn(-c2ccc(N)cc2)c(C)c1NC(=O)COC(=O)Cn1c(C)cc2ccccc21 [compound 22] |
| – | – | – | – | > 50 | > 50 | > 50 | 9.96 | Cc1cc2ccccc2n1CC(=O)OCC(=O)Nc1ccccc1 [compound 24] |
| – | – | – | – | > 50 | > 50 | > 50 | 30.6 | Cc1nn(-c2ccccc2)c(C)c1NC(=O)COC(=O)Cn1ccc2c(F)cccc21 [compound 25] |
| – | – | – | – | > 50 | > 50 | > 50 | 26 | Cc1nn(-c2ccccc2)c(C)c1NC(=O)COC(=O)Cn1ccc2cc(Cl)ccc21 [compound 28] |
| – | – | – | – | > 50 | > 50 | > 50 | 1.2 | Cc1nn(-c2ccccc2)c(C)c1NC(=O)COC(=O)Cn1ccc2cccc(Cl)c21 [compound 31] |
| – | – | – | – | > 50 | > 50 | > 50 | 3.36 | Cc1nn(-c2ccccc2)c(C)c1NC(=O)COC(=O)Cn1c(C(C)C)cc2ccccc21 [compound 32] |
| – | – | – | – | > 50 | > 50 | > 50 | 6.49 | Cc1nn(-c2ccccc2)c(C)c1NC(=O)COC(=O)Cn1c(C)cc2cccc(Cl)c21 [compound 33] |
| – | – | – | – | > 50 | > 50 | > 50 | 11.3 | Cc1nn(-c2ccccc2)c(C)c1NC(=O)COC(=O)C(C)n1c(C)cc2ccccc21 (stereo not shown) [compound 34] |
| – | – | – | – | > 50 | > 50 | > 50 | 1.41 | Cc1cc2ccccc2n1CC(=O)OCC(=O)Nc1ccc(N2CCOCC2)cc1 [compound 35] |
| – | – | – | – | > 50 | 29.3 | > 50 | 0.433 | CCc1cc2ccccc2n1CC(=O)OCC(=O)Nc1c(C)nn(-c2ccccc2)c1C [compound 36] |
| – | – | – | – | > 50 | > 50 | > 50 | 6.98 | Cc1[nH]c2ccccc2c1CC(=O)OCC(=O)Nc1cnn(-c2ccccc2)c1 [compound 39] |
| – | – | – | – | > 50 | > 50 | > 50 | 31.3 | Cc1nn(-c2ccccc2)c(C)c1NC(=O)COC(=O)Cc1coc2ccccc12 [compound 41] |

From patent EP3305781A1, “CHEMICAL SUBSTANCES WHICH INHIBIT THE ENZYMATIC ACTIVITY OF HUMAN KALLIKREIN-RELATED PEPTIDASE 6 (KLK6)” (Deutsches Krebsforschungszentrum, priority 2016, dated 2018)
